Test [1] concerns the target Urease (Canavalia ensiformis) (UniProt P07374). Briefly: Reactivation of jack bean urease activity in presence of DTT after 40 mins.
Test [2] shares this target. Briefly: Inhibition of jack bean urease assessed as residual activity at 30 uM.
The target is the same in test [3]. Briefly: Inhibition of jack bean urease assessed as residual activity at 50 uM.
Test [4] has the same target. The experiment in a line: Inhibition of jack bean urease assessed as residual activity at 85 uM.

Sequence of Urease (Canavalia ensiformis) (P07374 whole entry, looked up): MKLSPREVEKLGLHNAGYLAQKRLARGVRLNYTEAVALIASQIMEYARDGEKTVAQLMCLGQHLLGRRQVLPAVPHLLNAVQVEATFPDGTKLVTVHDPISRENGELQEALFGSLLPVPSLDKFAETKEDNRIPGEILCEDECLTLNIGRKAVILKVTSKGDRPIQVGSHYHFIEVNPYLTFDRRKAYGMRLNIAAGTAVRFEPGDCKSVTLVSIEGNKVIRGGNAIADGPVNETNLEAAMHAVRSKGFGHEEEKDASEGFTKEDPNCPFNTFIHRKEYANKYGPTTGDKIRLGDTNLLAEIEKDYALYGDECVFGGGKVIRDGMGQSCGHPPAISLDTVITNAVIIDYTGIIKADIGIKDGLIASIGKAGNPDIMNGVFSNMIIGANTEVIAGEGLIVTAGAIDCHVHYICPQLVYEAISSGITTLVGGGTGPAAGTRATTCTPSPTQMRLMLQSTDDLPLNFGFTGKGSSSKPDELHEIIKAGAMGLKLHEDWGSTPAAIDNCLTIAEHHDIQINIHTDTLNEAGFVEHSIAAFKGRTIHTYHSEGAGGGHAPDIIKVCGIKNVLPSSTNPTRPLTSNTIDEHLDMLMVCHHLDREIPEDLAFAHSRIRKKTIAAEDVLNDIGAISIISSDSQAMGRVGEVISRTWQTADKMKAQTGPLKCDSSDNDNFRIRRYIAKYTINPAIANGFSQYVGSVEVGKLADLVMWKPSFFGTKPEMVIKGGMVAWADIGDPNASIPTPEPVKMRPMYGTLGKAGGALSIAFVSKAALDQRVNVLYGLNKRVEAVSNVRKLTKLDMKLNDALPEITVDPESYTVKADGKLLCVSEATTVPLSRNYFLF

Take `O=C1C=CC(=O)c2ccccc21`: the Activity worked out at 40% in test [1], 40% in test [2], 24% in test [3] and 7% in test [4].

(Values after ChEMBL document CHEMBL1147964, “Double mode of inhibition-inducing interactions of 1,4-naphthoquinone with urease: arylation versus oxidation of enzyme thiols” (Bioorg Med Chem, 2007).)
